Measurements: ChEMBL document CHEMBL3045199, “Synthesis of some (E)-6-[2-(furan-2-yl)ethenyl]-1,2,4-triazin-5-ones and their biological evaluation as antitumor agents” (2013)

Tests used:
Assay type in all cases: functional
[1] = tested on: IGROV-1; experiment: Cytotoxicity against Homo sapiens (human) IGROV1 cells assessed as growth inhibition at 10 uM after 24 hr; conditions: IGROV-1, 24 h, read-out: GI
[2] = tested on: SNB-19; experiment: Cytotoxicity against Homo sapiens (human) SNB19 cells assessed as growth inhibition at 10 uM after 24 hr; conditions: SNB-19, 24 h, read-out: GI
[3] = tested on: SN12C; experiment: Cytotoxicity against Homo sapiens (human) SN12C cells after 48 hr by SRB assay
[4] = tested on: SK-MEL-2; experiment: Cytotoxicity against Homo sapiens (human) SK-MEL-2 cells after 48 hr by SRB assay; conditions: SK-MEL-2, 48 h
[5] = tested on: HL-60(TB); experiment: Cytotoxicity against Homo sapiens (human) HL-60(TB) cells after 48 hr by SRB assay; conditions: HL-60, 48 h
[6] = tested on: A549; experiment: Cytotoxicity against Homo sapiens (human) A549 cells after 48 hr by SRB assay; conditions: A549, 48 h
[7] = Cytotoxicity against Homo sapiens (human) prostate cancer cells after 48 hr by SRB assay; conditions: Cancer cell lines
[8] = tested on: M14; experiment: Cytotoxicity against Homo sapiens (human) M14 cells after 48 hr by SRB assay; conditions: M14, 48 h
[9] = tested on: SK-MEL-5; experiment: Cytotoxicity against Homo sapiens (human) SK-MEL-5 cells after 48 hr by SRB assay; conditions: SK-MEL-5, 48 h
[10] = tested on: UACC-62; experiment: Cytotoxicity against Homo sapiens (human) UACC62 cells after 48 hr by SRB assay; conditions: UACC-62, 48 h
[11] = tested on: CCRF-CEM; experiment: Cytotoxicity against Homo sapiens (human) CCRF-CEM cells after 48 hr by SRB assay
[12] = Cytotoxicity against Homo sapiens (human) CNS cancer cells after 48 hr by SRB assay; conditions: Cancer cell lines
[13] = tested on: SW-620; experiment: Cytotoxicity against Homo sapiens (human) SW620 cells after 48 hr by SRB assay; conditions: SW-620, 48 h
[14] = tested on: COLO 205; experiment: Cytotoxicity against Homo sapiens (human) COLO205 cells after 48 hr by SRB assay; conditions: COLO 205, 48 h
[15] = tested on: UO-31; experiment: Cytotoxicity against Homo sapiens (human) UO31 cells after 48 hr by SRB assay; conditions: UO-31, 48 h
[16] = tested on: ACHN; experiment: Cytotoxicity against Homo sapiens (human) ACHN cells after 48 hr by SRB assay
[17] = tested on: MOLT-4; experiment: Cytotoxicity against Homo sapiens (human) MOLT4 cells after 48 hr by SRB assay; conditions: MOLT-4, 48 h
[18] = tested on: OVCAR-3; experiment: Cytotoxicity against Homo sapiens (human) OVCAR3 cells after 48 hr by SRB assay; conditions: OVCAR-3, 48 h
[19] = tested on: NCI-H460; experiment: Cytotoxicity against Homo sapiens (human) NCI-H460 cells assessed as growth inhibition at 10 uM after 24 hr; conditions: NCI-H460, 24 h, read-out: GI
[20] = tested on: NCI-H23; experiment: Cytotoxicity against Homo sapiens (human) NCI-H23 cells assessed as growth inhibition at 10 uM after 24 hr; conditions: NCI-H23, 24 h, read-out: GI
[21] = tested on: LOX IMVI; experiment: Cytotoxicity against Homo sapiens (human) LOXIMVI cells after 48 hr by SRB assay
[22] = tested on: U-251; experiment: Cytotoxicity against Homo sapiens (human) U251 cells after 48 hr by SRB assay; conditions: U-251, 48 h
[23] = tested on: NCI-H522; experiment: Cytotoxicity against Homo sapiens (human) NCI-H522 cells after 48 hr by SRB assay; conditions: NCI-H522, 48 h
[24] = Cytotoxicity against Homo sapiens (human) renal cancer cells after 48 hr by SRB assay; conditions: Cancer cell lines
[25] = tested on: MOLT-4; experiment: Cytotoxicity against Homo sapiens (human) MOLT4 cells assessed as growth inhibition at 10 uM after 24 hr; conditions: MOLT-4, 24 h, read-out: GI
[26] = tested on: UO-31; experiment: Cytotoxicity against Homo sapiens (human) UO31 cells assessed as growth inhibition at 10 uM after 24 hr; conditions: UO-31, 24 h, read-out: GI
[27] = tested on: SK-MEL-28; experiment: Cytotoxicity against Homo sapiens (human) SK-MEL-28 cells after 48 hr by SRB assay; conditions: SK-MEL-28, 48 h
[28] = tested on: RPMI-8226; experiment: Cytotoxicity against Homo sapiens (human) RPMI8226 cells after 48 hr by SRB assay; conditions: RPMI-8226, 48 h
[29] = tested on: OVCAR-8; experiment: Cytotoxicity against Homo sapiens (human) OVCAR8 cells assessed as growth inhibition at 10 uM after 24 hr; conditions: OVCAR-8, 24 h, read-out: GI
[30] = tested on: ACHN; experiment: Cytotoxicity against Homo sapiens (human) ACHN cells assessed as growth inhibition at 10 uM after 24 hr; conditions: read-out: GI
[31] = tested on: HOP-62; experiment: Cytotoxicity against Homo sapiens (human) HOP62 cells after 48 hr by SRB assay; conditions: HOP-62, 48 h
[32] = tested on: TK-10; experiment: Cytotoxicity against Homo sapiens (human) TK10 cells assessed as growth inhibition at 10 uM after 24 hr; conditions: TK-10, 24 h, read-out: GI
[33] = tested on: MCF7; experiment: Cytotoxicity against Homo sapiens (human) MCF7 cells assessed as growth inhibition at 10 uM after 24 hr; conditions: MCF7, 24 h, read-out: GI
[34] = tested on: SW-620; experiment: Cytotoxicity against Homo sapiens (human) SW620 cells assessed as growth inhibition at 10 uM after 24 hr; conditions: SW-620, 24 h, read-out: GI
[35] = tested on: NCI-H322M; experiment: Cytotoxicity against Homo sapiens (human) NCI-H322M cells after 48 hr by SRB assay
[36] = tested on: T47D; experiment: Cytotoxicity against Homo sapiens (human) T47D cells after 48 hr by SRB assay
[37] = read-out: LC50 (the source's name)

Nc1cc(-c2ccc(Cl)cc2)nn1-c1nc(=O)c(/C=C/c2ccco2)n[nH]1
inhibition of growth at 10 µM [1]: 65% | inhibition of growth at 10 µM [2]: 42.4% | TGI [3]: > 100 µM | GI50 ([3]; read-out: GI50): 18.7 µM | CC50 [3, 37]: > 100 µM | GI50 ([3]; read-out: pGI50 (converted)): 18.6 µM | TGI [4]: 77.9 µM | GI50 ([4]; read-out: GI50): 15.6 µM | CC50 [4, 37]: > 100 µM | GI50 ([4]; read-out: pGI50 (converted)): 15.5 µM | LC50 [5]: > 100 µM | TGI [5]: 8.19 µM | GI50 ([5]; read-out: GI50): 2.83 µM | GI50 ([5]; read-out: pGI50 (converted)): 2.82 µM | LC50 [6]: > 100 µM | TGI [6]: 34.2 µM | GI50 ([6]; read-out: GI50): 3.48 µM | GI50 ([6]; read-out: pGI50 (converted)): 3.47 µM | GI50 [7]: 4.3 µM | TGI [7]: 40.1 µM | CC50 [7, 37]: 50 µM | LC50 [8]: > 100 µM | TGI [8]: 31.7 µM | GI50 ([8]; read-out: GI50): 2.27 µM | GI50 ([8]; read-out: pGI50 (converted)): 2.29 µM | TGI [9]: 24.8 µM | GI50 ([9]; read-out: GI50): 3.83 µM | CC50 [9, 37]: > 100 µM | GI50 ([9]; read-out: pGI50 (converted)): 3.8 µM | LC50 (concentration killing 50% of cells) [10]: > 100 µM | TGI [10]: > 100 µM | GI50 ([10]; read-out: GI50): 5.07 µM | GI50 ([10]; read-out: pGI50 (converted)): 5.01 µM | LC50 [11]: > 100 µM | TGI [11]: 16.8 µM | GI50 ([11]; read-out: GI50): 2.88 µM | GI50 ([11]; read-out: pGI50 (converted)): 2.88 µM | GI50 [12]: 4.99 µM | TGI [12]: 44.5 µM | CC50 [12, 37]: > 100 µM | TGI [13]: > 100 µM | GI50 ([13]; read-out: GI50): 5.02 µM | CC50 [13, 37]: > 100 µM | GI50 ([13]; read-out: pGI50 (converted)): 5.01 µM | TGI [14]: 18.4 µM | GI50 ([14]; read-out: GI50): 3.44 µM | CC50 [14, 37]: > 100 µM | GI50 ([14]; read-out: pGI50 (converted)): 3.47 µM | TGI [15]: 13.7 µM | GI50 ([15]; read-out: GI50): 1.63 µM | CC50 [15, 37]: > 100 µM | GI50 ([15]; read-out: pGI50 (converted)): 1.62 µM | LC50 [16]: > 100 µM | TGI [16]: 24.8 µM | GI50 ([16]; read-out: GI50): 3.8 µM | GI50 ([16]; read-out: pGI50 (converted)): 3.8 µM | TGI [17]: 18.5 µM | GI50 ([17]; read-out: GI50): 2.01 µM | CC50 [17, 37]: > 100 µM | GI50 ([17]; read-out: pGI50 (converted)): 2 µM | LC50 (50% lethal concentration) [18]: 31.8 µM | TGI [18]: 5.2 µM | GI50 ([18]; read-out: GI50): 1.48 µM | GI50 ([18]; read-out: pGI50 (converted)): 1.48 µM | inhibition of growth at 10 µM [19]: 79.6% | inhibition of growth at 10 µM [20]: 41.2% | TGI [21]: 73.4 µM | GI50 ([21]; read-out: GI50): 6.69 µM | CC50 [21, 37]: > 100 µM | GI50 ([21]; read-out: pGI50 (converted)): 6.76 µM | TGI [22]: 84.8 µM | GI50 ([22]; read-out: GI50): 4.47 µM | CC50 [22, 37]: > 100 µM | GI50 ([22]; read-out: pGI50 (converted)): 4.47 µM | TGI [23]: 36.8 µM | GI50 ([23]; read-out: GI50): 5.12 µM | CC50 [23, 37]: > 100 µM | GI50 ([23]; read-out: pGI50 (converted)): 5.13 µM | GI50 [24]: 5.85 µM | TGI [24]: 37.4 µM | CC50 [24, 37]: > 100 µM | inhibition of growth at 10 µM [25]: 55.6% | inhibition of growth at 10 µM [26]: 96.1% | LC50 [27]: > 100 µM | TGI [27]: 82.3 µM | GI50 ([27]; read-out: GI50): 4.06 µM | GI50 ([27]; read-out: pGI50 (converted)): 4.07 µM | LC50 [28]: > 100 µM | TGI [28]: 23.2 µM | GI50 ([28]; read-out: GI50): 3.03 µM | GI50 ([28]; read-out: pGI50 (converted)): 3.02 µM | inhibition of growth at 10 µM [29]: 75.2% | inhibition of growth at 10 µM [30]: 70.6% | LC50 (concentration killing 50% of cells) [31]: > 100 µM | TGI [31]: 76.8 µM | GI50 ([31]; read-out: GI50): 5.77 µM | GI50 ([31]; read-out: pGI50 (converted)): 5.75 µM | inhibition of growth at 10 µM [32]: 48.8% | inhibition of growth at 10 µM [33]: 54.1% | inhibition of growth at 10 µM [34]: 50.8% | TGI [35]: 38.2 µM | GI50 ([35]; read-out: GI50): 1.47 µM | CC50 [35, 37]: > 100 µM | GI50 ([35]; read-out: pGI50 (converted)): 1.48 µM | LC50 [36]: > 100 µM | TGI [36]: 44.2 µM | GI50 ([36]; read-out: GI50): 4.37 µM | GI50 ([36]; read-out: pGI50 (converted)): 4.37 µM

O=c1[nH]cc(F)c(=O)[nH]1 [FLUOROURACIL]
GI50 ([3]; read-out: pGI50 (converted)): 25.1 µM | GI50 ([4]; read-out: pGI50 (converted)): 398 µM | GI50 ([5]; read-out: pGI50 (converted)): 20 µM | GI50 ([6]; read-out: pGI50 (converted)): 2 µM | GI50 ([8]; read-out: pGI50 (converted)): 50.1 µM | GI50 ([9]; read-out: pGI50 (converted)): 12.6 µM | GI50 ([10]; read-out: pGI50 (converted)): 12.6 µM | GI50 ([11]; read-out: pGI50 (converted)): 31.6 µM | GI50 ([13]; read-out: pGI50 (converted)): 25.1 µM | GI50 ([14]; read-out: pGI50 (converted)): 6.31 µM | GI50 ([15]; read-out: pGI50 (converted)): 5.01 µM | GI50 ([16]; read-out: pGI50 (converted)): 10 µM | GI50 ([17]; read-out: pGI50 (converted)): 12.6 µM | GI50 ([18]; read-out: pGI50 (converted)): 25.1 µM | GI50 ([21]; read-out: pGI50 (converted)): 6.31 µM | GI50 ([22]; read-out: pGI50 (converted)): 39.8 µM | GI50 ([23]; read-out: pGI50 (converted)): 39.8 µM | GI50 ([27]; read-out: pGI50 (converted)): 50.1 µM | GI50 ([28]; read-out: pGI50 (converted)): 5.01 µM | GI50 ([31]; read-out: pGI50 (converted)): 20 µM | GI50 ([35]; read-out: pGI50 (converted)): 20 µM | GI50 ([36]; read-out: pGI50 (converted)): 79.4 µM
